Measured values reported in patent US3968204A, “Antibiotic A-2315” (priority 1975, dated 1976).
In brackets after ≈: the same amount, converted by molar mass.

Experiments:
[1] = tested on: Propionibacterium acnes; assay: MIC, anaerobic bacteria; type: cell-based; settings: Cutibacterium acnes
[2] = tested on: Peptococcus anaerobius; assay: MIC, anaerobic bacteria; type: cell-based
[3] = tested on: Streptococcus faecalis; assay: Agar-dilution MIC; type: cell-based; settings: Enterococcus faecalis; Agar-Dilution Method
[4] = tested on: Clostridium perfringens; assay: microbe, parasite or virus in culture; type: cell-based
[5] = tested on: experimental bacterial infections; assay: In vivo antimicrobial action in mice; settings: subcutaneous injection
Experimental: (§1) When two doses each of A-2315 factors were administered to mice in illustrative infections, the ED50 values [effective dose in mg/kg to protect 50 percent of the test aninals; see Warren Wick, et al., J. Bacteriol.

[6] = Acute toxicity in mice; type: in vivo
Experimental: The acute toxicity of antibiotic A-2315 factor A, administered either orally or subcutaneously to mice and expressed as LDo, is greater than 500 mg./kg. The acute toxicities of the A-2315 factors, administered intraperitoneally to mice and expressed as LD50 are as follows: […]

[7] = tested on: Treponema hyodysenteriae; assay: Agar-dilution MIC, anaerobe; type: cell-based; settings: Brachyspira hyodysenteriae; agar-dilution method; anaerobic
Description: The A-2315 antibiotics are also active against anaerobic bacteria. In one aspect of this activity, the A-2315 antibiotics are active against Treponema hyodysenteriae, a cause of swine dysentery. The minimal concentrations of A-2315 factors which inhibit this organism, as determined by the agar-dilution method, are as follows: […]

[8] = tested on: Actinomyces bovis; assay: MIC, anaerobic bacteria; type: cell-based
[9] = tested on: Staphylococcus aureus 3130; assay: Disc-plate MIC; settings: Disc-Plate Method; benzylpenicillin-resistant, methicillin-resistant
[10] = tested on: Mycoplasma gallisepticum isolate 43480 (tylosin resistant); assay: Broth-dilution MIC; type: cell-based; settings: Mycoplasmoides gallisepticum
Description: (§2) Another useful property of the A-2315 antibiotics is activity against Mycoplasma gallisepticum, an organism pathogenic for poultry. Of particular interest is the activity of the A-2315 antibiotics against strains of this organism that are resistant to tylosin. The minimal inhibitory concentrations of A-2315 factor A, as determined by in vitro broth-dilution studies, are summarized in Table V below: […]

[11] = tested on: Mycoplasma gallisepticum isolate 41313 (tylosin resistant); assay: Broth-dilution MIC; type: cell-based; settings: Mycoplasmoides gallisepticum
Description: as §2

[12] = tested on: Mycoplasma gallisepticum isolate 42854 (tylosin resistant); assay: Broth-dilution MIC; type: cell-based; settings: Mycoplasmoides gallisepticum
Description: as §2

[13] = tested on: Mycoplasma gallisepticum isolate 38502 (tylosin sensitive); assay: Broth-dilution MIC; type: cell-based; settings: Mycoplasmoides gallisepticum
Description: as §2

[14] = tested on: Mycoplasma gallisepticum isolate 34159 (tylosin resistant); assay: Broth-dilution MIC; type: cell-based; settings: Mycoplasmoides gallisepticum
Description: as §2

[15] = tested on: Fusobacterium necrophorum; assay: MIC, anaerobic bacteria; type: cell-based
[16] = tested on: Clostridium septicum; assay: MIC, anaerobic bacteria; type: cell-based
[17] = tested on: Streptococcus mutans; assay: Broth-dilution growth inhibition of cariogenic organism; type: cell-based; settings: read-out: growth inhibiting concentration
Experimental: (§3) In another aspect of the present invention, the A-2315 antibiotics have the ability to inhibit the growth of microorganisms contributing to the development of periodontal disease. In broth-dilution tests, A-2315 factor A inhibits the growth of the cariogenic organism Streptococcus mutans at concentrations of 1-2 μg/ml and inhibits the growth of cariogenic filamentous rods at a concentration as low as 0.1 μg/ml.

[18] = tested on: cariogenic filamentous rods; assay: as above; type: cell-based; settings: read-out: growth inhibiting concentration (as low as)
Experimental: as §3

[19] = tested on: Bacteriodes fragilis ssp. fragilis; assay: MIC, anaerobic bacteria; type: cell-based
[20] = tested on: Ruminal VFA; assay: Ruminal volatile fatty acids in vitro; parameters: species or system steer; settings: 16 hours, 38°C
Description: Rumen fluid is obtained from a steer with a surgically-installed fistula opening into the rumen. The steer is maintained on a high-grain ration, the composition of which follows:
A sample of rumen fluid is strained through four layers of cheesecloth, and the filtrate is collected. The particulate matter retained by the cheesecloth is resuspended in enough physiological buffer to return it to the original volume of the rumen fluid, and this suspension is strained again. The buffer used has the following composition:
The two filtrates are combined and allowed to stand until particulate matter separates to the top. The clear layer is separated, diluted with the same buffer (1:1) and then adjusted to pH 7.0.
The diluted rumen fluid (10 ml) is placed in a 25-ml flask with 40 mg of the above-described feed, an additional 5 mg of soybean protein, and the test compound. Four replicate flasks are used per treatment. Two sets of four control flasks each are also employed. A zero-time control and an incubated 16-hour control are used. All test flasks are incubated for 16 hours at 38°C. After incubation, the pH is measured; and 25 percent metaphosphoric acid (2 ml) is added to each flask. The samples are allowed to settle, and the supernatant is analyzed by gas chromatography for propionate, acetate, butyrate compounds.
Test-compound results are statistically compared with control results.

[21] = tested on: Candida albicans; assay: Disc-plate MIC; settings: Disc-Plate Method
[22] = tested on: bean rust (Uromyces phaseoli var. typica); assay: Plant-fungicidal activity on bean plants; type: in vivo; settings: 400 ppm
Description: In yet another aspect of the invention, the A-2315 antibiotics are useful as plant-fungicidal agents.

[23] = tested on: Streptococcus pyogenes; assay: Disc-plate MIC; settings: Disc-Plate Method
[24] = tested on: Staphylococcus aureus 3055; assay: Protection of mice against experimental bacterial infection; type: in vivo; settings: Staphylococcus aureus, 3055, sc, subcutaneous, two doses
Experimental: as §1
^ 2 Infecting challenges: S. aureus 3.16 × LD50 (ip)

[25] = tested on: Staphylococcus aureus 3074; assay: Agar-dilution MIC; type: cell-based
[26] = 0.1 mcg per ml diluted rumen fluid
[27] = 0.3 mcg per ml diluted rumen fluid
[28] = 1.0 mcg per ml diluted rumen fluid

CC1=CC(O)CC(O)Cc2nc(co2)C(=O)NC(C)C(=O)OC(C(C)C)C(C)C=CC(=O)NCC=C1 (stereo not shown) [Factor A]
MIC [1]: 8 µg/mL (≈ 15.9 µM) | MIC [2]: 2 µg/mL (≈ 3.97 µM) | MIC [3]: 1.56 µg/mL (≈ 3.1 µM) | MIC [4]: 32 µg/mL (≈ 63.5 µM) | in vivo antimicrobial action [5]: have shown in vivo antimicrobial action | LD50 ([6]; mouse, in vivo, ip, intraperitoneally): > 400 mg/kg | acute toxicity, LDo ([6]; orally): greater than 500 mg./kg. | acute toxicity, LDo ([6]; subcutaneously): greater than 500 mg./kg. | MIC [7]: < 0.195 µg/mL | MIC [8]: 16 µg/mL (≈ 31.8 µM) | MIC [9]: 0.2 μg/disc | MIC [10]: < 0.097 µg/mL | MIC [11]: 0.78 µg/mL (≈ 1.55 µM) | MIC [12]: 0.195 µg/mL (≈ 0.387 µM) | MIC [13]: < 0.097 µg/mL | MIC [14]: 0.195 µg/mL (≈ 0.387 µM) | MIC [15]: 16 µg/mL (≈ 31.8 µM) | MIC [16]: 32 µg/mL (≈ 63.5 µM) | MIC [17]: 1 to 2 µg/mL (≈ 1.99 to 3.97 µM) | MIC [18]: 0.1 µg/mL (≈ 0.199 µM) | MIC [19]: 128 µg/mL (≈ 254 µM) | Acetate, ratio of VFA concentration treated to control [20, 26]: 0.97 | Butyrate, ratio of VFA concentration treated to control [20, 26]: 1.01 | Propionate, ratio of VFA concentration treated to control [20, 26]: 1.07 | Total VFA, ratio of concentration treated to control [20, 26]: 1.04 | Acetate, ratio of VFA concentration treated to control [20, 27]: 0.95 | Butyrate, ratio of VFA concentration treated to control [20, 27]: 1.00 | Propionate, ratio of VFA concentration treated to control [20, 27]: 1.08 | Total VFA, ratio of concentration treated to control [20, 27]: 1.07 | Acetate, ratio of VFA concentration treated to control [20, 28]: 0.95 | Butyrate, ratio of VFA concentration treated to control [20, 28]: 1.04 | Propionate, ratio of VFA concentration treated to control [20, 28]: 1.15 | Total VFA, ratio of concentration treated to control [20, 28]: 1.05 | MIC [21]: 100.0 μg/disc | protection of bean plants [22]: protected | phytotoxicity ([22]; bean plants): Only slight phytotoxicity | MIC [23]: 0.012 μg/disc | ED50 ([24]; Test I, challenge 4000 × LD50 (ip)): 90 mg/kg | ED50 ([24]; Test II, challenge 3.16 × LD50 (ip)): 45.7 mg/kg | MIC [25]: 1.56 µg/mL (≈ 3.1 µM)
